This note sets out measurements from the pKa sets of Baltruschat and Czodrowski (2020).

Structures are written as SMILES.

One may read the pKa as the negative logarithm of the acid dissociation constant. Where the note is “acidic group”, `COc1cccc(C(=O)O)c1C` gave a pKa of 3.72.
`COCc1ccc(C(=O)O)cc1` registered a pKa (acidic group) of 4.18.
In the case of `Nc1n[nH]cc1[N+](=O)[O-]`, the pKa (acidic group) stood at 9.73.
Under “basic group”, `Cc1ccc(CNCCN)cc1` displayed a pKa of 9.41.
For `CCCCCCCCNCCC(=O)[O-]`, the pKa (basic group) amounted to 10.6.
For the molecule `CC(C)(N)C(C)(C)[NH3+]`, the pKa (basic group) turned out to be 6.56.
In turn, `C=C(/C=C(/C)O)C(C)(C)C` gave a pKa (acidic group) of 11.
As to `CCc1cc(O)cc(C)c1Cl`, the pKa (acidic group) is 9.6.
`OCC[n+]1cc(Br)c2ccccc2c1` registered a pKa (acidic group) of 13.1.
`CCOC(C)=N`: under “basic group”, the pKa amounted to 7.15.
In the case of `CCC1C(=O)C=C(C)OC1=O` (configuration not stated), under “acidic group”, the pKa turned out to be 5.3.
Still for that read-out and setting: the figure for `CC(=O)[C@H]1C[C@@H](CC(=O)O)C1(C)C` is 4.82.
`Cc1cc(C)c(C(=O)C(=O)O)c(C)c1` displayed a pKa (acidic group) of 1.34.
`Nc1ccc(B(O)O)c([N+](=O)[O-])c1` displayed a pKa (acidic group) of 9.64.
`Nc1cccc(S(N)(=O)=O)c1` showed a pKa (basic group) of 2.87.
The molecule `CCNN(C)C` yielded a pKa (basic group) of 6.58.
In the case of `N#CC(CCCC(=O)O)c1ccccc1` (configuration not stated), the pKa (acidic group) is 4.64.
With `CCN(C)C`, the pKa (basic group) stood at 10.1.
For the molecule `C[N+](C)(C)CCC[N+](C)(C)CCCNC(=O)/C=N/O`, the pKa (acidic group) was 8.31.
With `O=C(O)c1ccoc1`, the pKa was 3.94 (acidic group) and -0.59 (basic group).
On to `[NH3+][C@@H](CCC(=O)O)C(=O)[O-]`, for which the pKa (acidic group) turned out to be 4.46.
In turn, `COc1ccccc1O` displayed a pKa (acidic group) of 9.7.
In turn, `O=C1CC(=O)CS(=O)(=O)C1` returned a pKa (acidic group) of 2.72.
On to `C[N+](=O)[O-]`, for which the pKa (acidic group) turned out to be 10.5.
`O=C(O)c1cc2cc(Cn3cc[nH+]c3)ccc2s1`: the pKa (acidic group) is 2.74.
On to `C[Si](C)(CCN)O[Si](C)(C)CCN`, for which, under “basic group”, the pKa is 10.7.
`c1ccc(CN(Cc2ccccc2)Cc2ccccc2)cc1`: the pKa (basic group) came to 7.44.
`CCOC(=O)C1CN2CCC1CC2` (configuration not stated): for the setting “basic group”, the pKa turned out to be 9.64.
As for `CCN(CC)/N=C(\N)CC[Si](C)(C)C`, the pKa (basic group) turned out to be 10.7.
Where the note is “acidic group”, `N#Cc1ccc(C(=O)O)cc1` came in with a pKa of 3.53.
Turning to `CC(=O)Nc1ccncc1`, the pKa (basic group) came out at 5.87.
`CC(=O)OCC(=N/[O-])/C(C)=N/O` showed a pKa (acidic group) of 11.5.
In the case of `NCCCCCO`, the pKa (basic group) came to 10.5.
The molecule `CN(C)N` displayed a pKa (basic group) of 7.16.
For the molecule `CCC(=O)OCCN(C)C`, the pKa (basic group) turned out to be 8.29.
In the case of `CCN(CC)Cc1cc([N+](=O)[O-])c2ccccc2c1[O-]`, under “basic group”, the pKa stood at 11.
On to `Cc1ccc(N)cc1C`, for which the pKa (basic group) came to 4.94.
For the setting “acidic group”, `O=C1C=Cc2ccccc2/C1=N\O` yielded a pKa of 7.77.
In the case of `CCN(CC)NC`, the pKa (basic group) came to 7.14.
`CN(C)c1cccc2cccc([NH+](C)C)c12` gave a pKa (basic group) of -9.
In the case of `CCOP(=O)([O-])NS(=O)(=O)c1ccccc1`, the pKa (acidic group) came out at 6.5.
Under “basic group”, `CC[NH+](CC)CCNc1nc(C)nc(Nc2ccc(Cl)cc2)n1` came in with a pKa of 4.02.
Turning to `C[C@H](N)Cc1ccc(O)cc1`, the pKa (basic group) is 9.3.
With `N#CC(Br)C#N`, the pKa (acidic group) was 5.
`c1ccc(-n2cccn2)nc1` registered a pKa (basic group) of 1.07.
As for `CN(C)[C@H]1CCC[C@@H]1C#N`, the pKa (basic group) was 7.02.
Under “basic group”, `C[C@H]1CCC2CC[C@H](C)N21` showed a pKa of 11.7.
`C[C@@H]1C[C@@H]1C(=O)O` showed a pKa (acidic group) of 5.03.
In the case of `c1ccc(-c2cccc[nH+]2)nc1`, the pKa (basic group) was found to be 1.47.
In turn, `NC(=O)CNCCCNCC(N)=O` gave a pKa (acidic group) of 7.27.
`CC(=O)/C(CN1CCOCC1)=N\O`: the pKa was 9.15 (acidic group) and 6.1 (basic group).
On to `Cc1ccc(C2CCCN2)cc1` (configuration not stated), for which the pKa (basic group) was 9.99.
`CC(C)NCCN` yielded a pKa (basic group) of 10.6.
Under “acidic group”, `c1ccc(-c2nc3ccccc3[nH]2)cc1` came in with a pKa of 11.9.
Turning to `O=[N+]([O-])c1ccc(NC=S)cc1`, for the setting “acidic group”, the pKa was 10.1.
Under “basic group”, `CCN(CC1CO1)CC1CO1` (configuration not stated) had a pKa of 6.91.
As to `C(CNCCc1nnn[n-]1)NCCc1nnn[n-]1`, the pKa (basic group) amounted to 9.33.
The molecule `O=[N+]([O-])c1ccc2c(O)cccc2c1` displayed a pKa (acidic group) of 8.49.
Consider `Oc1ccc(I)cc1`, for which, where the note is “acidic group”, the pKa was determined as 9.32.
In the case of `CSc1ccc(N)cc1[N+](=O)[O-]`, the pKa (basic group) was determined as 2.47.
Turning to `O=C(O)[C@H]1C[C@@H]1c1ccc(Cl)cc1`, the pKa (acidic group) stood at 4.53.
`CCC(O)CN(CC)CCO` (configuration not stated) registered a pKa (basic group) of 9.1.
For `COCCSC(C)O` (configuration not stated), where the note is “acidic group”, the pKa amounted to 14.2.
With `Sc1cc2ccccc2cn1`, the pKa is 8.58 (acidic group) and 0.39 (basic group).
Turning to `Cn1cc([NH3+])cc1C(=O)O`, where the note is “acidic group”, the pKa is 3.5.
As to `COc1ccc(C[C@H](C)N)cc1OC`, the pKa (basic group) came out at 9.6.
`Nc1ccc2c(c1)-c1c(ccc3ccccc13)C2` came in with a pKa (basic group) of 4.67.
`CC(N)Cc1ccc2c(c1)OCO2` (configuration not stated) registered a pKa (basic group) of 9.67.
For `O=C(O)c1ccc(OCc2ccccc2)cc1`, the pKa (acidic group) was 4.44.
